Measurements taken from patent US8173648B2 (priority 2008, dated 2012).
Like-named read-outs stand apart in the source and are kept apart here.

Assays:
[1] = molecular target: T1, monoamine oxidase B (MAO-B) (Rattus norvegicus, UniProt P19643); assay: biochemical
T1 construct: from tissue; host or cells: brain cortex of male F344/N rats (supernatant of homogenate)
T1 sequence (P19643 1-520): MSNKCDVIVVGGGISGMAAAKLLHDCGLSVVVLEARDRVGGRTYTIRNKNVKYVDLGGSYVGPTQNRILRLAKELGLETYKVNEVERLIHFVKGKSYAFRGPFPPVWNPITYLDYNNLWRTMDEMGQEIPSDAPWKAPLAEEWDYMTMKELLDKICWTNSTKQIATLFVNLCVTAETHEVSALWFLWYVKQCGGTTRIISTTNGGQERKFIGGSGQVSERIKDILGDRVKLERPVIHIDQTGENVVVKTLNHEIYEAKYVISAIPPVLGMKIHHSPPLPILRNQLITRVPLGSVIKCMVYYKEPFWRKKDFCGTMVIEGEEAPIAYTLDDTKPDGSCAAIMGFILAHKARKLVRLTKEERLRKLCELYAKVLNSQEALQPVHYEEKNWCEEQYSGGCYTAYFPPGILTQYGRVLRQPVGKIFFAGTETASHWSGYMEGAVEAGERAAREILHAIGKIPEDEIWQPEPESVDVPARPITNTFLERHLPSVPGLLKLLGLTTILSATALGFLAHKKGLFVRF
Protocol: At first, monoamine oxidase B (MAO-B) was purified from rat brain cortex, and then activity inhibition assay of these derivatives against monoamine oxidase B(MAO-B) was carried out.
MAO-B enzyme preparations were prepared from brain cortex of decapitalized male F344/N rats. The brain cortex in PBS solution was frozen with liquid nitrogen and kept at −80° C. for 3 days. The homogenate was then obtained by centrifugation (14,000 rpm, 10 min) of the frontal cortex in 0.1 M potassium phosphate buffer (pH 7.4) at 4° C. and the supernatant was taken as the enzyme source for MAO. A standard solution containing 0.1 M potassium phosphate buffer and albumin were prepared in different concentration grades. Ten microliters of each solution was taken and added with 200 μl of BCA kit. Following the similar method, the above supernatant from brain cortex was diluted and 10 μl of stock solution taken and added with […] of BCA kit. Both standard and sample solutions were incubated at 37° C. for 30 min. 200 μl of the solutions was added to each well of a 96-well microplate and the protein contents were measured with a fluorescence microplate reader by determining optical density at 595 nm.
To the supernatant (protein content, 80 μg/ml) in 96-well microplate was added with 1 U/ml HRP (Horseradish Peroxidase), […] benzylamine, and 50 μM Amplex red in 0.1 M potassium phosphate buffer followed by the tested sample, which was prepared in 200 μg/ml in DMSO as stock solution. These mixtures were incubated at room temperature for 60 min and optical density was determined by a fluorometric reader. Its IC50 was calculated then with the following formula. IC50: median inhibitory concentration, which is defined in this example as the concentration of a inhibitor that is needed for inhibiting 50% activity of an enzyme. Inhibition (%)=1−[(OD595 of sample/protein−[…] of sample)/OD595 of blank]×100% • OD595: Optical density at 595 nm (wavelength) • protein: protein content of control 3. Statistical Analysis

[2] = molecular target: T2, γ-secretase (Homo sapiens, UniProt P49768); assay: Cell-based γ-secretase assay (luciferase reporter) in T-20 cell line
T2 construct: measure the activity of γ-secretase in T-20 cell line; endogenous in cells; host or cells: T-20 (T-REx293/HEK293 stably transfected with C99-GV/TO and Gal4-Luc)
Protocol: In this example, a quantitative cell-based assay described in reference (2) and (3) was employed to measure the activity of γ-secretase in T-20 cell line.
Cell lysis and the addition of reagents for luciferase assay were completed simultaneously using the Steady-Glo luciferase assay system (Promega) as described in the manufacturer's instructions. Luciferase signals were determined by a VictorLight microplate luminometer (PerkinElmer).
A quantitative cell-based γ-secretase assay in T-20 cell line described in reference (2) was employed to measure the activity of γ-secretase. In this example, said assay and cell line thereof was used to measure effect of 1,2,3,4-tetrahydroisoquinoline derivatives on the activity of γ-secretase.
T-20 cells were routinely maintained in DMEM supplemented with 10% FBS, 200 μg/ml of hygromycin, 5 μg/ml of blasticidin, and 250 μg/ml of zeocin (DMEM-HZB). The stably transfected T-20 cells were detached from culture dishes by trypsinization, washed with PBS, and resuspended in DMEM-HZB, followed by plating onto 96-well microplates (2×10^4 cells/50 μl/well) and incubating at 37° C. for 24 hours. Preliminarily, compounds diluted in DMEM-HZB were added to a final concentration of 10 μM in the presence of tetracycline (1 μg/ml). Treatments were terminated after incubation at 37° C. for 24 hours by adding directly an equivalent volume of the Steady-Glo luciferase assay reagent (Promega), and measurements of luciferase signals from each well were performed immediately with the VictorLight microplate luminometer) (PerkinElmer). Triplicates of each compound treatment were assayed. Luciferase signal from the stable line without tetracycline induction and compound treatment was referred to as one-fold of activation. Parallel testing with a cell line constitutively expressing only the luciferase reporter gene (e.g., under control of a CMV promoter) was performed as a control.
Briefly, T-20 cell line was induced by tetracycline to express C99-GV protein fragment on cell membrane.

[3] = system: ERK1/2; assay: Assay for extracellular signal-regulated kinase (ERK) activity (Western blot p-ERK1/2 / ERK1/2); format: cell-based, Human; conditions: for Activation of ERK1/2 (p-ERK/ERK, (%)): 10 μM, T-20 cells, positive control = 100, mean ± SD of three experiments
Protocol: Cell line used in this example were same as those described in example 2.
The activation of the ERKs was measured by using anti-phospho-ERK1/2 and anti-ERK1/2 antibodies (Cell Signaling Technology). In brief, T-20 cells were grown in six-well plates at 5×10^5 cells/well and incubated with culture medium at 37° C. for 18 hours, followed by an additional incubation with culture medium containing 1 μg/ml of tetracycline at 37° C. for 18 hours. Before the experiments, we replaced the medium with DMEM containing 0.5% FBS and treated it with the tested compounds (10 μM each). After treatment, reactions were stopped by placing cells on ice and aspirating off the medium. Cells were harvested and lysed in 50 mM Tris-HCl (pH 8.0), 150 mM NaCl, 5 mM EDTA, 1 mM sodium orthovanadate, 1% Triton X-100, and protease- and phosphatase-inhibitor cocktails. Protein concentration was determined by the BCA assay (Pierce). Each cell lysate, which contained 50 μg proteins, was separated on 12% SDS-polyacrylamide electrophoresis gels, immunoblotted, and identified using anti-phospho-ERK1/2 or anti-ERK1/2 antibody. In this example, T-20 cell line treated with medium containing 1% DMSO and 1 μg/ml of tetracycline was used as positive control group; T-20 cell line treated with medium containing various compounds (10 μM), 1% DMSO and 1 μg/ml of tetracycline were used as test groups for different compounds.

[4] = system: soluble amyloid precursor protein α (sAPPα); assay: Effect on secretion of sAPPα in γ-30 cells (Western blot, 6E10 antibody); format: cell-based, Chinese hamster; conditions: 10 μM; for protein content of sAPPα detected by Western blot: FIG. 4A
Protocol: It is known that monoamine oxidase B (MAO-B) inhibitor can activate directly or indirectly ERK-related pathway, so as to regulate amyloid precursor protein (APP) proteolytic process, which lead to modulate indirectly the secretion of soluble amyloid precursor protein α (sAPPα), and inhibit indirectly the production of insoluble β amyloid-peptides (Aβ). […] Thus, in this example, assay was carried out in γ-30 cells to examine the effect of 1,2,3,4-tetrahydroisoquinoline derivatives (12a, c and d) on the secretion of sAPPα.
As described in reference (3) and (6), briefly described below. PS70 Chinese hamster ovary cell (CHO cell) was used to perform a transfection to obtain γ-30 stably transfected cell line, γ-30 stably transfected cell line was used to express then full length amyloid precursor protein (APP) and human PS1, Aph-1α2, and Pen-2 proteins (Human PS, Aph-1α2, and Pen-2). This cell line could be used as the ideal model cell for detecting α-secretase degradation of amyloid precursor protein (APP).
Each group of corresponding cell lysate in example 5 was prepared to identical protein content. Proteins with different molecular weight were separated by means of electrophoresis on SDS-PAGE and Western Blot assay was carried using anti-Aβ1-17 monoclonal antibody (6E10) (purchased from US Chemicom Co.). In this example, γ-30 cell line treated with medium containing 1% DMSO was used as negative control group, γ-30 cell lines treated with medium containing different compounds (10 μM), 1% DMSO and 1 μg/ml of tetracycline were used as test group for different compounds, respectively.
γ-30 stably transfected cell line expresses full length amyloid precursor protein (APP) and human PS1, Aph-1α2, and Pen-2 proteins. When α-secretase cleavages amyloid precursor protein (APP), soluble amyloid precursor protein α (sAPPα) is formed, which can be used to detect whether a compound has an effect on the secretion of soluble amyloid precursor protein α (sAPPα). To this end, Western blot assay using Aβ1-17 monoclonal antibody (6E10) was carried out to detect soluble amyloid precursor protein α (sAPPα). […] Thereafter, results from Western blot assay were subjected to quantitatively statistical analysis.

[5] = T20, read-out: inhibition of the activity of γ-secretase compared with positive control group

Row | Structure (SMILES) | IC50 [1] [µM] | inhibition at 10 µM [2, 5] [%] | Activation of ERK1/2 (p-ERK/ERK, (%)) [3] [%] | protein content of sAPPα detected by Western blot [4] | relative sAPPα secretion (quantified Western blot) ([4]; FIG. 4B) | also measured
1 | C#CCN1CCc2ccc(OC(=O)N(C)CC)cc2C1 [Compound 11a, 7-(N-Methyl-N-ethylcarbamoyloxy)-N-propargyl-1,2,3,4-tetrahydroisoquinoline] | 21.5 ± 1 | – | – | – | – | –
2 | CCN(C)C(=O)Oc1ccc2c(c1)CN(CC1CC1)CC2 [Compound 12a, 7-(N-Methyl-N-ethylcarbamoyloxy)-N-cyclopropylmethyl-1,2,3,4-tetrahydroisoquinoline] | 12.8 ± 2 | 35 to 72 | 131 ± 10 | higher than that of negative control group | could promote the secretion | –
3 | O=C(Oc1ccc2c(c1)CN(CC1CC1)CC2)N1CCOCC1 [Compound 12d, 7-(1-Morpholinecarbamoyloxy)-N-cyclopropylmethyl-1,2,3,4-tetrahydroisoquinoline] | 18.5 ± 0.8 | 35 to 72 | 138 ± 39 | higher than that of negative control group | could promote the secretion | –
4 | C#CCN1CCc2ccc(OC(=O)N3CCOCC3)cc2C1 [Compound 11d, 7-(1-Morpholinecarbamoyloxy)-N-propargyl-1,2,3,4-tetrahydroisoquinoline] | 18.7 ± 1.6 | – | – | – | – | –
5 | O=C(Oc1ccc2c(c1)CN(CC1CC1)CC2)N1CCCCC1 [Compound 12c, 7-(1-Piperidinecarbamoyloxy)-N-cyclopropylmethyl-1,2,3,4-tetrahydroisoquinoline] | 11.6 ± 0.7 | 35 to 72 | 155 ± 28 | higher than that of negative control group | could promote the secretion | ability to activate ERK relative to rasagiline test group ([3]; 10 μM each): 1.2 times; promotion of sAPPα secretion compared with rasagiline test group ([4]; FIG. 4B): better promotion effect than rasagiline test group
6 | C#CCN1CCc2ccc(OC(=O)N3CCCCC3)cc2C1 [Compound 11c, 7-(1-Piperidinecarbamoyloxy)-N-propargyl-1,2,3,4-tetrahydroisoquinoline] | 15.7 ± 2.2 | – | – | – | – | –
7 | C#CCN1CCc2ccc(OC(=O)N3CCCC3)cc2C1 [Compound 11b, 7-(1-Pyrrolidinecarbamoyloxy)-N-propargyl-1,2,3,4-tetrahydroisoquinoline] | 13.9 ± 0.5 | – | – | – | – | –
8 | C#CCN[C@@H]1CCc2ccccc21 [Rasagiline, rasagiline, reference compound] | – | – | 131 ± 14 | – | – | inhibition at 10 µM ([2]; T20, 10 μM, T-20 cells, 24 hours, tetracycline 1 μg/ml, FIG. 2, read-out: inhibition of the activity of γ-secretase compared with positive control group): 6 to 15%
9 | O=C(Oc1ccc2c(c1)CN(CC1CC1)CC2)N1CCCC1 [Compound 12b, 7-(1-Pyrrolidinecarbamoyloxy)-N-cyclopropylmethyl-1,2,3,4-tetrahydroisoquinoline] | 14.9 ± 1.1 | – | – | – | – | –
